Results: ChEMBL document CHEMBL4507278 (2021)

Tests used:
[1] = molecular target: Aurora kinase C (Homo sapiens) (UniProt Q9UQB9); conditions: Compound concentration 1000.0 nM
[2] = molecular target: Serine/threonine-protein kinase PknB (Mycobacterium tuberculosis) (UniProt P9WI81); conditions: Compound concentration 1000.0 nM
[3] = molecular target: Tyrosine-protein kinase FRK (Homo sapiens) (UniProt P42685); conditions: Compound concentration 1000.0 nM
[4] = molecular target: Tyrosine-protein kinase JAK1 (Homo sapiens) (UniProt P23458); conditions: Compound concentration 1000.0 nM
[5] = molecular target: Bone morphogenetic protein receptor type-1A (Homo sapiens) (UniProt P36894); conditions: Compound concentration 1000.0 nM
[6] = molecular target: MAP kinase-activated protein kinase 5 (Homo sapiens) (UniProt Q8IW41); conditions: Compound concentration 1000.0 nM
[7] = system: Receptor-type tyrosine-protein kinase FLT3 (Homo sapiens), P36888 [D835V]; conditions: Compound concentration 1000.0 nM
[8] = molecular target: Receptor-interacting serine/threonine-protein kinase 4 (Homo sapiens) (UniProt P57078); conditions: Compound concentration 1000.0 nM
[9] = molecular target: Cyclin-dependent kinase 19 (Homo sapiens) (UniProt Q9BWU1); conditions: Compound concentration 1000.0 nM
[10] = molecular target: Cyclin-dependent kinase-like 3 (Homo sapiens) (UniProt Q8IVW4); conditions: Compound concentration 1000.0 nM
[11] = molecular target: Serine/threonine-protein kinase Nek6 (Homo sapiens) (UniProt Q9HC98); conditions: Compound concentration 1000.0 nM
[12] = molecular target: Calcium/calmodulin-dependent protein kinase type II subunit alpha (Homo sapiens) (UniProt Q9UQM7); conditions: Compound concentration 1000.0 nM
[13] = molecular target: Tyrosine-protein kinase ITK/TSK (Homo sapiens) (UniProt Q08881); conditions: Compound concentration 1000.0 nM
[14] = molecular target: 5-hydroxytryptamine receptor 1E (Homo sapiens) (UniProt P28566); conditions: Compound concentration 10.0 uM
Chain of 5-hydroxytryptamine receptor 1E (Homo sapiens) (P28566 whole entry): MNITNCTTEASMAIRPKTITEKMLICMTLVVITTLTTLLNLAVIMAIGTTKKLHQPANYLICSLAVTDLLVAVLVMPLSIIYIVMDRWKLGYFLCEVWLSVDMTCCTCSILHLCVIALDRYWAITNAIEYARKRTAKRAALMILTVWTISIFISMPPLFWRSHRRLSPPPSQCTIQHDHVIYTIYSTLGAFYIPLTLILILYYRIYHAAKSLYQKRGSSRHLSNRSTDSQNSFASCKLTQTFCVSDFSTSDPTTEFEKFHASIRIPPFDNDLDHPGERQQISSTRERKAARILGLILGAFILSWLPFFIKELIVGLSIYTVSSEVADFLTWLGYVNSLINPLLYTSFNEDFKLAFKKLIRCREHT

[15] = molecular target: cAMP-dependent protein kinase catalytic subunit PRKX (Homo sapiens) (UniProt P51817); conditions: Compound concentration 1000.0 nM
[16] = molecular target: Serine/threonine-protein kinase WNK2 (Homo sapiens) (UniProt Q9Y3S1); conditions: Compound concentration 1000.0 nM
Chain of Serine/threonine-protein kinase WNK2 (Homo sapiens) (Q9Y3S1 whole entry): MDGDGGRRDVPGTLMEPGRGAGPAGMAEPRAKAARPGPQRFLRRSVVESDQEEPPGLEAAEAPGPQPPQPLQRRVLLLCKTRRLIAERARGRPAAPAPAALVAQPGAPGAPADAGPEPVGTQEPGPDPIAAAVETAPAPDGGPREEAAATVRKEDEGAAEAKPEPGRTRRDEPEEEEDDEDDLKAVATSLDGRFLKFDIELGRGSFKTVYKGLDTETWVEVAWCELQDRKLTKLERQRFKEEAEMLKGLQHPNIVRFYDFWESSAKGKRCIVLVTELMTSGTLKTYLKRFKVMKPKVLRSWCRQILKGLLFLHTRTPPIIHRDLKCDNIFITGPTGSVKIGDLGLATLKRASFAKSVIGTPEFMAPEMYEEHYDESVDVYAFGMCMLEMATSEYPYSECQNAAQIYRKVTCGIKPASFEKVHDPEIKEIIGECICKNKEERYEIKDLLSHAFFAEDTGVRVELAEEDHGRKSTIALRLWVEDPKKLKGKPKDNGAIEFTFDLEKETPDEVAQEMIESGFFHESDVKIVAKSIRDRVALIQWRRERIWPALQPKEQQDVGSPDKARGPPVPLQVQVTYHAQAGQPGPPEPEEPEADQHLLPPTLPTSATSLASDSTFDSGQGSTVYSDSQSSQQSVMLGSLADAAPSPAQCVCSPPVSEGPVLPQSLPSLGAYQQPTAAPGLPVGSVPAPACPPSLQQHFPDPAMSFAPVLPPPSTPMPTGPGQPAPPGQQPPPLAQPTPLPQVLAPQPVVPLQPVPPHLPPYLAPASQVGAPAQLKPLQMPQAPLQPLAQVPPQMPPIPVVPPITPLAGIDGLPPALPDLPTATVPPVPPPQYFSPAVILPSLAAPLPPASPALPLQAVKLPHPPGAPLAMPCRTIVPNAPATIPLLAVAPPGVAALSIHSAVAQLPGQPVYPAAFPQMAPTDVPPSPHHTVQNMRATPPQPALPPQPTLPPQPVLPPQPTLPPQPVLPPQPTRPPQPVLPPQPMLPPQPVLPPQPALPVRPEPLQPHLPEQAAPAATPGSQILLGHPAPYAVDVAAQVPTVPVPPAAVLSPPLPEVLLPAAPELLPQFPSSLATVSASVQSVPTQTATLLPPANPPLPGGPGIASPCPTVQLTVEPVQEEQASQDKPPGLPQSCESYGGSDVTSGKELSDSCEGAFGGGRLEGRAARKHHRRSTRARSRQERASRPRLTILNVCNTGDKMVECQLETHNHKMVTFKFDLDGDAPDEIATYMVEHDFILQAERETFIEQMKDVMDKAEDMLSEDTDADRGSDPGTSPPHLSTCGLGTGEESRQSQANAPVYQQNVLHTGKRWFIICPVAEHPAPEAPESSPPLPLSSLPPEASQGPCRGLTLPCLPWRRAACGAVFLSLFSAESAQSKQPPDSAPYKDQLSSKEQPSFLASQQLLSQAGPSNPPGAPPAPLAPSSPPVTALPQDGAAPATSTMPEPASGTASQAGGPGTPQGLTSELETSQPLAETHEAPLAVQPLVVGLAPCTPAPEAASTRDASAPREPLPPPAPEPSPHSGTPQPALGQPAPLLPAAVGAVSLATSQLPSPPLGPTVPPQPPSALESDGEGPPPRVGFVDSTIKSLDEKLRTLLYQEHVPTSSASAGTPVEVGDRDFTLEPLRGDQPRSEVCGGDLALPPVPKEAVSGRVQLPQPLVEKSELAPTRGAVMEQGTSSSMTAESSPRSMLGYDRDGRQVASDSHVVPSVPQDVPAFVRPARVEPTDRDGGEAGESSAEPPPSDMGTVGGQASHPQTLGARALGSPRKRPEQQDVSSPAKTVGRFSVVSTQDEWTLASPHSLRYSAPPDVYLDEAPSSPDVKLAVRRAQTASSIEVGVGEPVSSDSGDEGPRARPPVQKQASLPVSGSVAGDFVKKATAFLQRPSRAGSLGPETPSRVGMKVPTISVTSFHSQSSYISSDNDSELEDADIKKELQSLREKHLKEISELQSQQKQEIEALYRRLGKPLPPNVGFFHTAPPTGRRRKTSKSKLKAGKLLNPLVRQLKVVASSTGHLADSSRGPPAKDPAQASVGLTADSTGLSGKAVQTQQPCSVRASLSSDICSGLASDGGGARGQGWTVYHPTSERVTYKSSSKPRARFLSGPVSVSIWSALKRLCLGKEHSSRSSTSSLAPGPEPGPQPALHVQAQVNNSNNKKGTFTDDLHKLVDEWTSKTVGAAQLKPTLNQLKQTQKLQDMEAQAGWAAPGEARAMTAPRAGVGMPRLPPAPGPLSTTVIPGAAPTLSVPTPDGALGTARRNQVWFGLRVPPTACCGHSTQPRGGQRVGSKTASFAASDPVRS

[17] = molecular target: Cyclin-dependent kinase 11A (Homo sapiens) (UniProt Q9UQ88); conditions: Compound concentration 1000.0 nM
[18] = molecular target: RAC-alpha serine/threonine-protein kinase (Homo sapiens) (UniProt P31749); conditions: Compound concentration 1000.0 nM
[19] = molecular target: Dual specificity mitogen-activated protein kinase kinase 6 (Homo sapiens) (UniProt P52564); conditions: Compound concentration 1000.0 nM
[20] = molecular target: Serine/threonine-protein kinase 38-like (Homo sapiens) (UniProt Q9Y2H1); conditions: Compound concentration 1000.0 nM
[21] = molecular target: Ankyrin repeat and protein kinase domain-containing protein 1 (Homo sapiens) (UniProt Q8NFD2); conditions: Compound concentration 1000.0 nM
[22] = molecular target: Ribosomal protein S6 kinase alpha-2 (Homo sapiens) (UniProt Q15349); conditions: Compound concentration 1000.0 nM
Chain of Ribosomal protein S6 kinase alpha-2 (Homo sapiens) (Q15349 whole entry): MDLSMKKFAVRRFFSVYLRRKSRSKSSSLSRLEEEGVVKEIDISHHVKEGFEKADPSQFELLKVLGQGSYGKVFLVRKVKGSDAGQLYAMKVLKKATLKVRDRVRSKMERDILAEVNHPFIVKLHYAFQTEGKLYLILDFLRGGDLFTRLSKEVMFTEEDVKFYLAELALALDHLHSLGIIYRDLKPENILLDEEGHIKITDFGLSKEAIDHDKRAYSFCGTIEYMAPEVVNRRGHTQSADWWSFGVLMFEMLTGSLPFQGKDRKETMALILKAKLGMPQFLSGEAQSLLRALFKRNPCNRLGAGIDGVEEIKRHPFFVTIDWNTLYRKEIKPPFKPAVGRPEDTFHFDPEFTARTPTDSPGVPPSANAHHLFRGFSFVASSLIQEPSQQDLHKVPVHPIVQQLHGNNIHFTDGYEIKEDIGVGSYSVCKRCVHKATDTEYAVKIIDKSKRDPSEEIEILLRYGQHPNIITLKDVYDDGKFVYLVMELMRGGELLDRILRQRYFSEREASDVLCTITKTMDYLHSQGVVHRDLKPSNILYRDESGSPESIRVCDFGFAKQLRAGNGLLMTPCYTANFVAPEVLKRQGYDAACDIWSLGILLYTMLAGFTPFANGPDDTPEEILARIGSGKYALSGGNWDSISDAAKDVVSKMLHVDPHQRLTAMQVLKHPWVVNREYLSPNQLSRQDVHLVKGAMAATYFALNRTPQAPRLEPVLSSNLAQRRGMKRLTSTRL

[23] = molecular target: T1, 5-hydroxytryptamine receptor 1A (Homo sapiens) (UniProt P08908); conditions: Compound concentration 10.0 uM
T1 sequence (whole entry): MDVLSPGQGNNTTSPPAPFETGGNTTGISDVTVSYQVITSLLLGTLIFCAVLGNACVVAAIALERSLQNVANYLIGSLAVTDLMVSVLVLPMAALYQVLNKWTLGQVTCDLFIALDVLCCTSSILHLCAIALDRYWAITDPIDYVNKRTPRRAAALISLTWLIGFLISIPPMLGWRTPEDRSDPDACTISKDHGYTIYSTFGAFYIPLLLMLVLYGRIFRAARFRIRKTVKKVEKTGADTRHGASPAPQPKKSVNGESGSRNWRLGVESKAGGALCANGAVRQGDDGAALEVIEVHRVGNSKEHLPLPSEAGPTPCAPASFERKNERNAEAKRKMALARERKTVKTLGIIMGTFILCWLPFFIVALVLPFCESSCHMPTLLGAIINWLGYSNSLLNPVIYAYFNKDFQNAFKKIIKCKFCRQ

[24] = molecular target: Macrophage colony-stimulating factor 1 receptor (Homo sapiens) (UniProt P07333); conditions: Compound concentration 1000.0 nM
Chain of Macrophage colony-stimulating factor 1 receptor (Homo sapiens) (P07333 whole entry, canonical isoform): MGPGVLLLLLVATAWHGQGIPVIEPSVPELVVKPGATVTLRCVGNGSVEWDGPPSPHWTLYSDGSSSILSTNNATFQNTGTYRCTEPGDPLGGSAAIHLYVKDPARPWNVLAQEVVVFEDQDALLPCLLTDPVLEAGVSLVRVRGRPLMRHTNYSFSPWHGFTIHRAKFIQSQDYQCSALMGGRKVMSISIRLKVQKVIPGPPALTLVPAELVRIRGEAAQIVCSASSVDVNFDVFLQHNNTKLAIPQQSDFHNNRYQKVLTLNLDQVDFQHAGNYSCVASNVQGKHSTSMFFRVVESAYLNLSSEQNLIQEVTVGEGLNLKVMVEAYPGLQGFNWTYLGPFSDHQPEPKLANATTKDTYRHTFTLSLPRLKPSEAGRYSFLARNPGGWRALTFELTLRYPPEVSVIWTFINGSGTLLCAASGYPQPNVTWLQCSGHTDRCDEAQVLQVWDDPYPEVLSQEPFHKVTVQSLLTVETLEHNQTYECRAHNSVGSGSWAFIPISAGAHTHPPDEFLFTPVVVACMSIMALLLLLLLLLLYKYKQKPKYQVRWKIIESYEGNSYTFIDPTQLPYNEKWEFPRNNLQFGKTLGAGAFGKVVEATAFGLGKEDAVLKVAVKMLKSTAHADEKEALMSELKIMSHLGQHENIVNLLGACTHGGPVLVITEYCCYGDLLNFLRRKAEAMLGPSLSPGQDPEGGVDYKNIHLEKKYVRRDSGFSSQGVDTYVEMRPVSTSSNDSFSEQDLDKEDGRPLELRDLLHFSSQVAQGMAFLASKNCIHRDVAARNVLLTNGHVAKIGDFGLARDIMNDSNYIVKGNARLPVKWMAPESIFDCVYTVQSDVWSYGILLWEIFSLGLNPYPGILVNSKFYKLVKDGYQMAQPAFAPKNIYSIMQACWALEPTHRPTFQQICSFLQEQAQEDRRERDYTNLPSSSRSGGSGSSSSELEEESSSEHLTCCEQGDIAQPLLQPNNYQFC

[25] = system: Phosphatidylinositol 4,5-bisphosphate 3-kinase catalytic subunit alpha isoform (Homo sapiens), P42336 [H1047L]; conditions: Compound concentration 1000.0 nM
[26] = molecular target: Histamine H2 receptor (Homo sapiens) (UniProt P25021); conditions: Compound concentration 10.0 uM
[27] = system: Mast/stem cell growth factor receptor Kit (Homo sapiens), P10721 [A829P]; conditions: Compound concentration 1000.0 nM
[28] = molecular target: TRAF2 and NCK-interacting protein kinase (Homo sapiens) (UniProt Q9UKE5); conditions: Compound concentration 1000.0 nM
[29] = molecular target: Receptor tyrosine-protein kinase erbB-2 (Homo sapiens) (UniProt P04626); conditions: Compound concentration 1000.0 nM
[30] = system: Epidermal growth factor receptor (Homo sapiens), P00533 [UNDEFINED MUTATION]; conditions: Compound concentration 1000.0 nM
[31] = molecular target: Macrophage colony-stimulating factor 1 receptor (Homo sapiens) (UniProt P07333); conditions: Compound concentration 1000.0 nM; remark: listed apart in the source
[32] = molecular target: Insulin receptor-related protein (Homo sapiens) (UniProt P14616); conditions: Compound concentration 1000.0 nM
[33] = molecular target: MAP/microtubule affinity-regulating kinase 3 (Homo sapiens) (UniProt P27448); conditions: Compound concentration 1000.0 nM
[34] = molecular target: Casein kinase I isoform epsilon (Homo sapiens) (UniProt P49674); conditions: Compound concentration 1000.0 nM
[35] = molecular target: Serine/threonine-protein kinase pim-1 (Homo sapiens) (UniProt P11309); conditions: Compound concentration 1000.0 nM
[36] = molecular target: Wee1-like protein kinase 2 (Homo sapiens) (UniProt P0C1S8); conditions: Compound concentration 1000.0 nM
[37] = molecular target: NUAK family SNF1-like kinase 2 (Homo sapiens) (UniProt Q9H093); conditions: Compound concentration 1000.0 nM
[38] = molecular target: Receptor tyrosine-protein kinase erbB-4 (Homo sapiens) (UniProt Q15303); conditions: Compound concentration 1000.0 nM
[39] = molecular target: Activin receptor type-2A (Homo sapiens) (UniProt P27037); conditions: Compound concentration 1000.0 nM

Chain of Serine/threonine-protein kinase PknB (Mycobacterium tuberculosis) (P9WI81 whole entry): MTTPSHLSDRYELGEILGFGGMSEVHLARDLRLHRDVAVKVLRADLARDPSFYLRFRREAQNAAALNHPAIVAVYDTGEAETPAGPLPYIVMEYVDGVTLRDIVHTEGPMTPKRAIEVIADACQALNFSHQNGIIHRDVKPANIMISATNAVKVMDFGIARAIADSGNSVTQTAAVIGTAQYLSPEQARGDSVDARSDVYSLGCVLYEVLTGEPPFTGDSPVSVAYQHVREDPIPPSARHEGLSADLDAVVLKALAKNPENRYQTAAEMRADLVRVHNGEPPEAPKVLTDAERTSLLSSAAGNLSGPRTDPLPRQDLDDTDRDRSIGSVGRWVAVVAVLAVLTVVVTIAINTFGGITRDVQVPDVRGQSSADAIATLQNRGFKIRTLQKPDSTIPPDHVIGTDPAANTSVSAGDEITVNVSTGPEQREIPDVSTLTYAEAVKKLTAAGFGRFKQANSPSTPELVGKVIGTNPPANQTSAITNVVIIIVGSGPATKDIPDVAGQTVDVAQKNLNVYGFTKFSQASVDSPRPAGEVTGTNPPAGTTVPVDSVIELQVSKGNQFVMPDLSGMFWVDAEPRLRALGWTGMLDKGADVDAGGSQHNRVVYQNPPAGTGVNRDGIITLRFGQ

Row | SMILES | residual activity [1] [%] | residual activity [2] [%] | residual activity [3] [%] | residual activity [4] [%] | residual activity [5] [%] | residual activity [6] [%] | residual activity [7] [%] | residual activity [8] [%] | residual activity [9] [%] | residual activity [10] [%] | residual activity [11] [%] | residual activity [12] [%] | residual activity [13] [%] | inhibition [14] [%] | residual activity [15] [%] | residual activity [16] [%] | residual activity [17] [%] | residual activity [18] [%] | residual activity [19] [%] | residual activity [20] [%] | further results
1 | CS(=O)(=O)NCC[C@H](NC(=O)c1cncc2c1cnn2-c1ccc(F)cc1)c1ccnc(S(C)(=O)=O)c1 [BI 9307] | 92 | 93 | 100 | 96 | 92 | 100 | 100 | 88 | 80 | 99 | 100 | 100 | 99 | 8.79 | 100 | 100 | 100 | 100 | 82 | 50 | residual activity [21]: 100%; residual activity [22]: 100%; inhibition [23]: 13.3%; residual activity [24]: 100%; residual activity [25]: 77%; inhibition [26]: 2.46%; residual activity [27]: 83%; residual activity [28]: 100%; residual activity [29]: 100%; residual activity [30]: 71%; residual activity [31]: 100%; residual activity [32]: 100%; residual activity [33]: 92%; residual activity [34]: 100%; residual activity [35]: 96%; residual activity [36]: 100%; residual activity [37]: 100%; residual activity [38]: 95%; residual activity [39]: 81%
2 | CS(=O)(=O)c1cc(C2(NC(=O)c3cncc4c3cnn4-c3ccc(F)cc3)CC2)ccn1 [BI 639667] | 100 | 99 | 58 | 96 | 100 | 87 | 100 | 87 | 91 | 96 | 100 | 100 | 89 | 14.8 | 85 | 75 | 99 | 100 | 74 | 34 | residual activity [21]: 96%; residual activity [22]: 88%; inhibition [23]: -9.71%; residual activity [24]: 100%; residual activity [25]: 100%; inhibition [26]: 3.34%; residual activity [27]: 100%; residual activity [28]: 95%; residual activity [29]: 100%; residual activity [30]: 66%; residual activity [31]: 79%; residual activity [32]: 65%; residual activity [33]: 100%; residual activity [34]: 84%; residual activity [35]: 100%; residual activity [36]: 100%; residual activity [37]: 100%; residual activity [38]: 100%; residual activity [39]: 98%
